Here are results for nine compounds from PubChem BioAssay (NCI).

Common to all, as to experiment: NCI-60 cell line screen, 48 h
Assay [1] relates to EKVX NSCLC.
The subject of assay [2] is UACC-257 melanoma.
The subject of assay [3] is UACC-62 melanoma.
Assay [4] concerns HCC-2998 colon.
For assay [5], the system named is SK-MEL-5 melanoma.
Assay [6] relates to OVCAR-8 ovarian.
In assay [7] the test system is K-562 leukemia.
The subject of assay [8] is SW-620 colon.
In assay [9] the test system is IGROV1 ovarian.
Assay [10] relates to NCI-H522 lung.

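Tested at 5 concentrations; 48 h exposure; 96-well plates; endpoints linearly interpolated, else capped at highest concentration. GI50 is the concentration that inhibits growth by half. TGI denotes the concentration required for complete inhibition of growth.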

As for `O=c1[nH]c(-c2ccc(C(F)(F)F)cc2)nc2c1CSCC2`, the GI50 in [1] is above 42.1 µM; in assay [2] it was above 65.2 µM; in assay [3], above 100 µM; in assay [4], above 81.2 µM; in [5], 88.9 µM; in assay [6] it was 26.3 µM. The GI50 in assay [7] is above 100 µM; in assay [8], above 100 µM; in assay [9] it was 43.1 µM; in assay [10] it was above 100 µM. In addition, the TGI in assay [1] is above 100 µM; in assay [2] it was above 100 µM; in [3], above 100 µM; in assay [4], above 100 µM; in assay [5] it was above 100 µM; in assay [6] it was 99 µM. For the same compound, the TGI in [7], in assay [8], in assay [9] and in assay [10] was above 100 µM throughout.

In the case of `O=C(/C=C/c1ccco1)Nc1ncc(Cc2ccc(F)cc2)s1`, the GI50 in assay [1] is 0.303 µM; in [3], 0.0555 µM; in [4], 0.224 µM; in assay [5], 0.0476 µM; in assay [6], 0.152 µM; in assay [7] it was 0.0385 µM. Further, the GI50 in assay [8] was 0.0443 µM; in assay [9], 0.167 µM; in [10], 0.0255 µM. Also, the TGI in assay [1], in [2], in assay [3], in [4], in assay [6] and in assay [7] was above 100 µM in each case. The TGI was above 100 µM in [8], above 100 µM in [9] and 0.191 µM in assay [10].

Take `O=C1C(c2ccccc2)=C(c2ccccc2)C(c2ccc(CCCCCCc3ccc(C4=C(c5ccccc5)C(=O)C(c5ccccc5)=C4c4ccccc4)cc3)cc2)=C1c1ccccc1`: the TGI in assay [1], in [2], in [3], in assay [4], in assay [5] and in assay [6] was above 100 µM throughout. The TGI in [7], in [8], in assay [9] and in [10] was above 100 µM each time.

Regarding `CCNCCNc1cc(-c2ccc(F)cc2)c(C#N)c2nc3ccccc3n12`, the GI50 in assay [1] was 13.6 µM; in assay [2], 2.1 µM; in [3] it was 1.9 µM; in [4], 3.83 µM; in assay [5] it was 1.74 µM; in assay [6], 4.52 µM. Besides, the GI50 in [7] was 2.15 µM; in [8], 2.95 µM; in assay [9], 7.26 µM; in assay [10], 2.93 µM. The TGI was found to be 26.7 µM in assay [1]; 3.82 µM in assay [2]; 3.95 µM in assay [3]; 14.2 µM in assay [4]; 3.18 µM in [5]; 15.8 µM in assay [6]. Moreover, the TGI in [7] is 4.64 µM; in assay [8], 10.1 µM; in assay [9], 22.8 µM; in assay [10] it was 9.43 µM.

On to `C[C@H]1[C@@H](OCC(CO[C@H]2O[C@@H]3O[C@@]4(C)CC[C@H]5[C@H](C)CC[C@@H]([C@H]2C)[C@@]35OO4)=NOCC(=O)O)OC2O[C@@]3(C)CC[C@H]4[C@H](C)CC[C@@H]1[C@@]24OO3` (stereo partly drawn), for which the GI50 in assay [1] was 0.0982 µM; in assay [2], 0.0266 µM; in [3], 0.0336 µM; in assay [4], 1.28 µM; in assay [5] it was 0.0288 µM; in assay [6], 0.0332 µM. The GI50 was below 0.01 µM in assay [7], below 0.0137 µM in assay [8], 0.0673 µM in assay [9] and below 0.0151 µM in [10]. The TGI in assay [1] was 22.2 µM; in assay [2], 16.4 µM; in [3] it was 15.5 µM; in assay [4], 20.8 µM; in assay [5], 14.9 µM; in [6] it was 16.4 µM. In addition, the TGI in [7] is 17.5 µM; in assay [8] it was 18 µM; in [9], 21.3 µM; in assay [10] it was 11.4 µM.

In the case of `CC[C@@H]1OC2(C)CC(S(=O)(=O)c3ccccc3)CC1O2` (stereo partly drawn), the TGI in assay [1], in [2], in assay [3], in [4], in assay [5] and in assay [6] was above 100 µM throughout. The TGI in assay [7], in assay [8], in [9] and in assay [10] was above 100 µM each time.

Take `COc1ccc(C(=O)C=C2NCCN2)cc1`: the TGI in assay [1], in [2], in [3], in [4], in assay [5] and in assay [6] was above 100 µM in each case. Besides, the TGI in assay [7], in assay [8], in [9] and in [10] was above 100 µM each time.

`Cn1c(O)c(C(=O)Nc2ccc([N+](=O)[O-])cc2)c(=O)n(C)c1=S`: the TGI in assay [1] was above 23.2 µM; in [2], 6.36 µM; in [3], 3.64 µM; in assay [4], 7.23 µM; in assay [5], 5.84 µM; in [6] it was 14.9 µM. Further, the TGI in assay [7] was above 50.9 µM; in assay [8] it was 31.3 µM; in assay [9], 10.1 µM; in [10], above 100 µM.

As for `C[C@@H]1CC[C@@]2(OC1)O[C@H]1C[C@H]3[C@@H]4CC=C5C[C@@H](O[C@@H]6O[C@H](CO)[C@@H](O[C@@H]7O[C@@H](CO)[C@H](O)[C@H]7O)[C@H](O)[C@H]6O[C@@H]6O[C@@H](C)[C@H](O)[C@@H](O)[C@H]6O)CC[C@]5(C)[C@H]4CC[C@]3(C)[C@H]1[C@@H]2C`, the GI50 in [1] was 1.62 µM; in assay [2], 1.31 µM; in assay [3] it was 0.909 µM; in [4], 1.71 µM; in [5] it was 1.6 µM; in assay [6] it was 0.657 µM. Also, the GI50 in [7] was 0.873 µM; in assay [8], 0.577 µM; in assay [9] it was 1.16 µM; in assay [10], 1.67 µM. The TGI in assay [1] was found to be 3.04 µM; in assay [2], 2.64 µM; in [3], 2.11 µM; in assay [4], 3.1 µM; in assay [5] it was 2.95 µM; in [6] it was 1.96 µM. The TGI in [7] was found to be 2.64 µM; in assay [8] it was 1.93 µM; in [9] it was 2.38 µM; in assay [10], 3.23 µM.
